Test results: US5430058A, “Pharmaceutical compositions comprising hydroxamate derivatives for iron removal” (Yeda Research and Development Co. Ltd., priority 1993, dated 1995)

Key:
[1] = test system: trophozoite cultures of P. falciparum; assay: Neutralization of drug induced inhibition by addition of iron(III); assay type: cell-based, Plasmodium falciparum; details: stoichiometric addition of iron(III) salt / applied as iron(III)-complexes
Procedure: i. Neutralization of drug induced inhibition by addition of iron (III). Preformed ferric iron-carrier complexes were prepared by addition of increasing amounts of FeCl3 (in methanol) to a DMSO solution containing the indicated concentration of chelator. The mixtures were incubated for 1 hour at room temperature and added to microculture wells at the trophozoite stage at final concentrations of 30 μg/ml (for desferrioxamine) and 5 μg/ml (for reversed siderophores).
In order to assess this point, it was examined whether the reversed siderophores cause growth inhibition by virtue of iron deprivation (extraction at the level of the infected cell), as compared to formation of toxic iron complexes, the effect of chelator on trophozoite cultures was examined in the presence of increasing amounts of ferric salt. […] The concentration of drug used was the IC50 value depicted in Table 1. […] The complexes were evidently non-toxic to parasites, thus ruling out chelated iron-mediated lipid peroxidation as the modus of operandii of the drugs, a mechanism of antimalarial activity that has been proposed for other iron chelators. […]

normal red cells = assay: Extraction of chelatable iron, normal red cells (NRC); assay type: cell-based, human; details: Experiment 1, NRC, 12 μM, 2 hours at 37° C (untreated <0.1)
Procedure: (§1) l. Extraction of chelatable iron. Trophozoite stage parasites were obtained from step gradient of Percoll-3% L-alanine in phosphate buffered saline (10 mM Na-phosphate, 150 mM NaCl, pH 7.4). Cell suspensions of 100% parasitemia were adjusted to 1% hematocrit and placed in RPMI growth medium supplemented with 50 mM sucrose and 20 mM glucose. Pretreatment of cells was done with 12 μM of the indicated SF derivative or DMSO for 2 hours at 37° C. at which time the cells were washed twice in 500× volume of buffer containing 150 mM NaCl, 10 mM HEPES and 50 mM sucrose pH=7.4 Next the cells were incubated for additional 3 hours in 6.8 μM NBD-DFO and washed to remove fluorescent probe. Measurements of chelatable iron were carried out in the TCA soluble fraction of freeze thaw lysates as described by Lytton, S. D. et al., 1991 Mol. Pharmacol. 40:584-590.
(§2) Iron extractions were performed on cell suspensions treated (yes) or untreated (no) with 12 μM RSF n2-ileu for 2 hours at 37° C. Fluorescence assays of chelatable iron in non-infected (NRC) and in parasitized (IRC) red cells were carried out as described by Lytton et al., (1991) Mol. Pharmacol. 40:584.

[2] = test system: normal and infected red cells; assay: Distribution of 59Fe counts after uptake (80,000g lysate fractionation); assay type: cell-based, human; details: 59Fe complex, lysates 80,000g×20 min
Procedure: k. Uptake of radioactive carrier-Fe complexes. DFO and the different SF derivatives were pre-complexed with iron by addition of concentrated stock solutions of 20 mg/ml carriers to ^59 FeCl3 (Amersham, England) in 0.5 ml of 150 mM NaCl, 10 mM Hepes at 3-5 molar excess of carrier for 1 hour at room temperature. To begin the flux, normal or parasitized red cells that had been washed 3 times in saline buffer and resuspended in the same buffer supplemented with 5% bovine serum albumin (BSA), 2.5 mM citrate, 2 mg/ml glucose were added to radioactive ^59 Fe-complexes at a final suspension of 20% hematocrit. After incubation at 37° C., 75 μl suspension was removed in duplicate aliquots for each time point, placed in plastic 15 ml test tube (Starstedt) and centrifuged 1 minute at 2,500 g. The supernatant was removed and the pellet immediately placed on ice. After all sampling was completed the pellets were washed twice in 15 ml of ice cold buffer containing 50 mM EDTA and lysed in distilled water. Radioactivity (Gamma emission, 700-1300 Kev) was counted and the cell number for each sample determined from hemoglobin absorption of the lysate at 410 nm.
Due to the fact that RSF's have markedly greater lipophilicity than DFO, they were expected to faster penetrate and therefore more effectively chelate intracellular iron after short exposure times. […]

uninfected red cells = assay: Pre-incubation of uninfected red cells with chelator, effect on parasite growth; assay type: cell-based, human
Procedure: h. The effect of pre-incubation of red cells or plasma with drug on parasite growth. Red cell suspensions (5% hematocrit) in RPMI 1640 medium pH 7.4 (no plasma) were treated for 24-48 hrs with either 100 μg/ml of chelator or DMSO alone (<1% final concentration) in culture conditions. Chelator was removed by washing the cells 4 times with RPMI followed by 1 hour incubation at 37° C. Parasite growth was assayed after addition of gelatin enriched schizonts (>90%) as described above. Human plasma (2 ml) from O+ donors was adjusted to either pH 5 with MES (to enhance chelating efficiency) or pH 7.4 (with TRIS base), and treated for 18 hrs with 100 μg/ml chelators or with DMSO. The plasma was subsequently dialyzed for 24 hours against 800 ml 0.1% bovine serum albumin (BSA), and 10 mM glucose in phosphate buffered saline (PBS) pH 7.4, followed by an additional 24 hour dialysis against 400 ml of the same buffer and supplemented to the medium for parasite growth assays.
Plasma and uninfected red cells were separately treated with relatively high concentrations of chelators (100 μg/ml) in order to evaluate whether the site of action of the lipophilic chelators was associated with components of the plasma and/or the uninfected red cell.

infected red cells = assay: Extraction of chelatable iron, infected red cells (IRC); assay type: cell-based, human erythrocytes infected with P. falciparum; details: 12 μM
Procedure: as §1, §2

Row | SMILES | Effect of iron(III) on antimalarial activity [1] | Chelatable iron after RSF pretreatment (normal red cells) [nmoles/10^10 cells] | Total counts found in the cytosol fraction [2] | Ability of red cells to support parasite growth after pre-treatment (uninfected red cells; 24 hour exposure, 40 fold IC50, then washing) | Effect on ability of uninfected cells to support parasite growth (uninfected red cells; general statement) | Chelatable iron after RSF pretreatment (infected red cells; Experiment 1, IRC, 2 hours at 37° C (untreated 4.6)) [nmoles/10^10 cells] | Chelatable iron after RSF pretreatment (infected red cells; Experiment 2, IRC, 2 hours at 37° C (untreated 2.9)) [nmoles/10^10 cells] | Reduction of chelatable iron (infected red cells; pretreatment of trophozoites, 2 hours)
1 | CC(=O)N(O)CCCCCNC(=O)CCC(=O)N(O)CCCCCNC(=O)CCC(=O)N(O)CCCCCN [DFO, desferrioxamine B, reference compound] | fully averted their antimalarial activity |  |  |  |  |  |  | 
2 | CC[C@H](C)[C@H](NC(=O)CCOCC(CC)(COCCC(=O)N[C@H](C(=O)N(C)O)[C@@H](C)CC)COCCC(=O)N[C@H](C(=O)N(C)O)[C@@H](C)CC)C(=O)N(C)O [SF1-ileu] |  | 0.7 | More than 90% | no significant effect | does not affect irreversibly the ability of uninfected cells to support parasite growth | 0.9 | 0.3 | 5-10 fold
